Reference: patent publication US20240327506A1, “METHODS AND COMPOSITION FOR THE SELECTIVE ENHANCEMENT OF ADOPTIVE CELL THERAPY” (MaineHealth, priority 2023, published 2024)

System: Hut78 T-cells
Assay: Transwell migration of Hut78 T-cells through collagen type-IV
Assay type: cell-based, human
Details: peptide, absence of SDF-1
Procedure: FIGS. 4A-4H. […] Briefly, membranes from transwell migration chambers were coated with either native collagen type-IV or denatured collagen type-IV. T-cell variants were incubated with non-specific control peptide CP, or the RGDKGE (SEQ ID NO: 1)-containing collagen peptide (P2) and seed on the coated transwell membranes. T-cells were allowed to migrate in the presence or absence of SDF-1 added to the lower chamber for approximately 1.5 hours. Cell migration was quantified by counting the number of crystal violet stained cells that had migrated through to the underside of the coated membrane. FIG. 4A. Jurkat T-cell migration through denatured collagen type-IV in the presence of non-specific control peptide CP or RGDKGE (SEQ ID NO: 1)-containing collagen peptide P2 with SDF-1. FIG. 4B. Jurkat T-cell migration through native collagen type-IV in the presence of non-specific control peptide CP or RGDKGE (SEQ ID NO: 1)-containing collagen peptide P2 with SDF-1. FIG. 4C. Cem/C1 T-cell migration through denatured collagen type-IV in the presence of non-specific control peptide CP or RGDKGE (SEQ ID NO: 1)-containing collagen peptide P2 with SDF-1. FIG. 4D. Cem/C1 T-cell migration through native collagen type-IV in the presence of non-specific control peptide CP or RGDKGE (SEQ ID NO: 1)-containing collagen peptide P2. FIG. 4E. Hut78 T-cell migration through denatured collagen type-IV in the presence of non-specific control peptide CP or RGDKGE (SEQ ID NO: 1)-containing collagen peptide P2. FIG. 4F. Hut78 T-cell migration through native collagen type-IV in the presence of non-specific control peptide CP or RGDKGE (SEQ ID NO: 1)-containing collagen peptide P2. FIG. 4G Primary CD8+ T-cell migration through denatured collagen type-IV in the presence of non-specific control peptide CP or RGDKGE (SEQ ID NO: 1)-containing collagen peptide P2 with SDF-1. FIG. 4H. CD8+ T-cell migration through native collagen type-IV in the presence of non-specific control peptide CP or RGDKGE (SEQ ID NO: 1)-containing collagen peptide P2 with SDF-1. Data bars indicate the mean cell migration±S.E. *P<0.05.
Given our new observations, and the fact that many tumor types as well as immunosuppressive macrophages can secrete the small soluble RGDKGE (SEQ ID NO: 1) collagen peptide, we next sought to determine whether this soluble collagen peptide could impact T-cell migration through denatured collagen type-IV, a critical ECM component shown to be selectively enriched in tumor vessels. Briefly, membranes from transwell migration chambers were coated with either native collagen type-IV or denatured collagen type-IV. […] Cell migration was quantified following staining cells with crystal violet (6,8). […]

“QGPRGDKGE (CQGPRGDKGEC; Synthetic: Synthetic collagen RGD containing peptide P-2) [Peptide P2, synthetic version of the soluble RGDKGE-containing collagen peptide]” was tested, and the “Hut78 T-cell migration” value (denatured collagen type-IV) was “selectively inhibited” and the “Hut78 T-cell migration” value (native collagen type-IV) was “neither the soluble RGDKGE (SEQ ID NO: 1) collagen peptide P2, nor the non-specific control peptide had any significant effect”.
